Reference: patent publication US20230049952A1, “METHODS AND COMPOUNDS FOR RESTORING MUTANT P53 FUNCTION” (PMV Pharmaceuticals, Inc., priority 2020, published 2023)

System: p53 signaling pathway in MT373 tumors
Test: MT373 syngeneic sarcoma model: mouse p53 signaling pathway profiling panel
Type: in vivo
Conditions: MT373 tumors

## CCn1c(C#CCNc2ccccc2)cc2cc(CNC3CCN(C)CC3)ccc21 [Compound 1, 1-Anilino-3-{1-ethyl-5-[(1-methyl-4-piperidylamino)methyl]-1H-indol-2-yl}-2-propyne]
75 mg/kg BIDx1, 72 h
  Wt1 mRNA, Fold Increase Over Vehicle Control or Percent Reduction Compared to Vehicle Control (%): 23.33 fold or %
  Zmat3 mRNA, Fold Increase Over Vehicle Control or Percent Reduction Compared to Vehicle Control (%): 1.10 fold or %
150 mg/kg BIDx1, 8 h
  Actb* mRNA (housekeeping or reference gene), Fold Increase Over Vehicle Control or Percent Reduction Compared to Vehicle Control (%): 1.00 fold or %
  B2m* mRNA (housekeeping or reference gene), Fold Increase Over Vehicle Control or Percent Reduction Compared to Vehicle Control (%): 1.05 fold or %
  Gapdh* mRNA (housekeeping or reference gene), Fold Increase Over Vehicle Control or Percent Reduction Compared to Vehicle Control (%): 1.02 fold or %
  Gusb* mRNA (housekeeping or reference gene), Fold Increase Over Vehicle Control or Percent Reduction Compared to Vehicle Control (%): 1.02 fold or %
  Hsp90ab1* mRNA (housekeeping or reference gene), Fold Increase Over Vehicle Control or Percent Reduction Compared to Vehicle Control (%): 9.13 fold or %
  MGDC* (housekeeping or reference gene), Fold Increase Over Vehicle Control or Percent Reduction Compared to Vehicle Control (%): 1.00 fold or %
  Trp63 mRNA, Fold Increase Over Vehicle Control or Percent Reduction Compared to Vehicle Control (%): 1.02 fold or %
  Trp73 mRNA, Fold Increase Over Vehicle Control or Percent Reduction Compared to Vehicle Control (%): 1.00 fold or %
  Wt1 mRNA, Fold Increase Over Vehicle Control or Percent Reduction Compared to Vehicle Control (%): 30.29 fold or %
  Zmat3 mRNA, Fold Increase Over Vehicle Control or Percent Reduction Compared to Vehicle Control (%): 6.69 fold or %
150 mg/kg BIDx1, 24 h
  Actb* mRNA (housekeeping or reference gene), Fold Increase Over Vehicle Control or Percent Reduction Compared to Vehicle Control (%): 1.11 fold or %
  B2m* mRNA (housekeeping or reference gene), Fold Increase Over Vehicle Control or Percent Reduction Compared to Vehicle Control (%): 1.11 fold or %
  Gapdh* mRNA (housekeeping or reference gene), Fold Increase Over Vehicle Control or Percent Reduction Compared to Vehicle Control (%): 14.16 fold or %
  Gusb* mRNA (housekeeping or reference gene), Fold Increase Over Vehicle Control or Percent Reduction Compared to Vehicle Control (%): 1.25 fold or %
  Hsp90ab1* mRNA (housekeeping or reference gene), Fold Increase Over Vehicle Control or Percent Reduction Compared to Vehicle Control (%): 24.42 fold or %
  MGDC* (housekeeping or reference gene), Fold Increase Over Vehicle Control or Percent Reduction Compared to Vehicle Control (%): 1.00 fold or %
  Trp63 mRNA, Fold Increase Over Vehicle Control or Percent Reduction Compared to Vehicle Control (%): 1.00 fold or %
  Trp73 mRNA, Fold Increase Over Vehicle Control or Percent Reduction Compared to Vehicle Control (%): 1.00 fold or %
  Wt1 mRNA, Fold Increase Over Vehicle Control or Percent Reduction Compared to Vehicle Control (%): 21.51 fold or %
  Zmat3 mRNA, Fold Increase Over Vehicle Control or Percent Reduction Compared to Vehicle Control (%): 6.17 fold
150 mg/kg BIDx1, 48 h
  Actb* mRNA (housekeeping or reference gene), Fold Increase Over Vehicle Control or Percent Reduction Compared to Vehicle Control (%): 1.04 fold or %
  B2m* mRNA (housekeeping or reference gene), Fold Increase Over Vehicle Control or Percent Reduction Compared to Vehicle Control (%): 1.20 fold or %
  Gapdh* mRNA (housekeeping or reference gene), Fold Increase Over Vehicle Control or Percent Reduction Compared to Vehicle Control (%): 27.30 fold or %
  Gusb* mRNA (housekeeping or reference gene), Fold Increase Over Vehicle Control or Percent Reduction Compared to Vehicle Control (%): 1.39 fold or %
  Hsp90ab1* mRNA (housekeeping or reference gene), Fold Increase Over Vehicle Control or Percent Reduction Compared to Vehicle Control (%): 19.96 fold or %
  MGDC* (housekeeping or reference gene), Fold Increase Over Vehicle Control or Percent Reduction Compared to Vehicle Control (%): 1.00 fold or %
  Trp63 mRNA, Fold Increase Over Vehicle Control or Percent Reduction Compared to Vehicle Control (%): 1.00 fold or %
  Trp73 mRNA, Fold Increase Over Vehicle Control or Percent Reduction Compared to Vehicle Control (%): 1.00 fold or %
  Wt1 mRNA, Fold Increase Over Vehicle Control or Percent Reduction Compared to Vehicle Control (%): 21.51 fold or %
  Zmat3 mRNA, Fold Increase Over Vehicle Control or Percent Reduction Compared to Vehicle Control (%): 1.36 fold or %
150 mg/kg BIDx1, 72 h
  Actb* mRNA (housekeeping or reference gene), Fold Increase Over Vehicle Control or Percent Reduction Compared to Vehicle Control (%): 1.04 fold or %
  B2m* mRNA (housekeeping or reference gene), Fold Increase Over Vehicle Control or Percent Reduction Compared to Vehicle Control (%): 1.18 fold or %
  Gapdh* mRNA (housekeeping or reference gene), Fold Increase Over Vehicle Control or Percent Reduction Compared to Vehicle Control (%): 19.69 fold or %
  Gusb* mRNA (housekeeping or reference gene), Fold Increase Over Vehicle Control or Percent Reduction Compared to Vehicle Control (%): 1.27 fold or %
  Hsp90ab1* mRNA (housekeeping or reference gene), Fold Increase Over Vehicle Control or Percent Reduction Compared to Vehicle Control (%): 1.00 fold or %
  MGDC* (housekeeping or reference gene), Fold Increase Over Vehicle Control or Percent Reduction Compared to Vehicle Control (%): 1.53 fold or %
  Trp63 mRNA, Fold Increase Over Vehicle Control or Percent Reduction Compared to Vehicle Control (%): 1.67 fold or %
  Trp73 mRNA, Fold Increase Over Vehicle Control or Percent Reduction Compared to Vehicle Control (%): 1.00 fold or %
  Wt1 mRNA, Fold Increase Over Vehicle Control or Percent Reduction Compared to Vehicle Control (%): 21.51 fold or %
  Zmat3 mRNA, Fold Increase Over Vehicle Control or Percent Reduction Compared to Vehicle Control (%): 1.21 fold or %
